Values of other authors as cited in patent US6495170B1, “Method of increasing the presence of glutathione in cells” (N. V. Nutricia, priority 2000, dated 2002).
Each block holds one compound with its values, some of them ahead of it.

Experiments:
[1] = tested on: γ-GCS; details: mediated by increased expression of γ-GCS mRNA and enzyme activity via AP-1
[2] = tested on: human erythrocytes
[3] = tested on: human neutrophils
[4] = tested on: isolated rat hepatocytes
[5] = tested on: glutathione-S-transferase
[6] = tested on: hepatic glutathione; details: induced by ethyl alcohol and paracetamol, rats
[7] = 200 μg/day supplement for 2 months
[8] = mice, ethanol-induced liver peroxidation, pretreatment 200 mg/kg
[9] = tested on: mitochondrial GSH
[10] = ingested in large amounts
[11] = tested on: hepatoblastoma Hep G2 cells
[12] = 50 mg/kg p.o., mice treated with CCl4

Compound: COc1cc(C(C)=O)ccc1O [Apocynin]
intracellular GSH synthesis [1]: enhances

activity of superoxide dismutase and glutathione peroxidase [2]: increased
Compound: COc1cc(C2Oc3cc([C@H]4Oc5cc(O)cc(O)c5C(=O)[C@@H]4O)ccc3OC2CO)ccc1O (stereo partly shown) [silybin]
superoxide and hydrogen peroxide production [3]: inhibitory effects
GSH depletion by buthionine sulfoximide [4]: does not affect
GSH depletion induced by acetaminophen [4]: reduces
inhibition of glutathione-S-transferase [5]: potent, non-toxic, inhibitor
hepatic glutathione depletion [6]: protect

Compound: [Se] [Selenium]
peroxidative parameters [7]: no effect
plasma selenium levels and glutathione peroxidase [7]: significantly improved

Compound: COc1cc2c(c(OC)c1OC)-c1c(cc3c(c1OC)OCO3)CC(C)C(C)C2 (stereo not shown) [schisandrin B]
GSH-peroxidase activity [8]: unaffected
dismutase and catalase activity [8]: increased
GSH/GSSG ratio ([9]; 3 mmol/kg/day p.o.): elevating
GSSG level ([9]; 3 mmol/kg/day p.o.): decreased
mitochondrial GSH level ([9]; 3 mmol/kg/day p.o.): increased
mitochondrial GSH reductase activity ([9]; 3 mmol/kg/day p.o.): increased

Compound: O=NN(CCCl)C(=O)NCCCl [BCNU]
GSH reductase activity ([9]; CCl4-intoxicated mice): inhibited
effect on the protective activity of schisandrin B ([9]; CCl4-intoxicated mice): did not affect

Compound: COc1cc2c(c(O)c1OC)-c1c(cc(OC)c(OC)c1OC)C[C@@H](C)[C@@H](C)C2 [schisanhenol]
GSH-peroxidase activity [8]: unaffected
dismutase and catalase activity [8]: increased

Compound: [Zn] [zinc, Zinc]
plasma zinc bound to RBP: < 2%
plasma zinc bound to albumin: 80-85%
plasma zinc bound to alpha2-macroglobulin: 15%

Compound: CC(=O)Nc1ccc(O)cc1 [Acetaminophen, acetaminophen]
hepatotoxicity [10]: severe hepatic necrosis

Compound: silymarin
acetaminophen-induced GSH depletion and cytotoxicity [11]: protects

Compound: COc1cc(C(=O)O[C@H]2[C@@H]3C=CO[C@@H](O[C@@H]4O[C@H](CO)[C@@H](O)[C@H](O)[C@H]4O)[C@@H]3[C@@]3(CO)O[C@@H]23)ccc1O [Picroside II]
hepatoprotective activity [12]: showed a hepatoprotective activity
